Assay results published in US11390616B2 (BRISTOL-MYERS SQUIBB COMPANY, priority 2015, dated 2022).

The molecules below were run against T1, human APJ receptor (Homo sapiens, UniProt P35414) (assay: Intracellular cAMP accumulation assay (APJ hcAMP, HTRF)). Details: HEK293 cells stably expressing human APJ receptor; inhibition of forskolin-mediated cAMP production; read-out: APJ cAMP Potency range.
T1 construct: expressed in transfected cells; host or cells: HEK293
T1 sequence (P35414 1-380): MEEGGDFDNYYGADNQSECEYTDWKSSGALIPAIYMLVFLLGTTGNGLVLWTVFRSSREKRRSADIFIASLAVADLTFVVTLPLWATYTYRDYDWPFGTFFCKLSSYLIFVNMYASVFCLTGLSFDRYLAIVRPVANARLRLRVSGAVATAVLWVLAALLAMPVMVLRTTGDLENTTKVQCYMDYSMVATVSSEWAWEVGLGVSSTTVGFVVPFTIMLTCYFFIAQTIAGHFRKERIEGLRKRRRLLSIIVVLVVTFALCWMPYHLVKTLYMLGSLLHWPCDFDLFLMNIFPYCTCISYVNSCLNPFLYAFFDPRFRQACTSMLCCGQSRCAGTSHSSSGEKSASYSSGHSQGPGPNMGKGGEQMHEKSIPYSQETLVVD
Assay type: cell-based
Description: Intracellular cAMP Accumulation Assay
HEK293 cells stably expressing human APJ receptor were used to assess the activity of compounds. Cultured cells were detached and resuspended in the cAMP Homogeneous Time-Resolved Fluorescence (HTRF) assay buffer (Cisbio cat; #62AM4PEJ). The assay was performed in 384-well assay plates (Perkin-Elmer; cat #6008289) according to assay protocol provided by the manufacturer. Serial dilutions of a compound together with assay buffer containing […] IBMX and 2 μM forskolin were added to each well containing 5,000 cells and incubated for 30 minutes at room temperature. Subsequently, cAMP D2 reagent was added in the lysis buffer followed by the EuK antibody (Cisbio; cat #62AM4PEJ) and incubated for 60 min. The fluorescence emission ratio was measured using fluorometer. The intracellular cAMP concentrations (compound-stimulated inhibition of forskolin-mediated cAMP production) were calculated by extrapolation from a standard curve using known cAMP concentrations. The EC50 values were obtained by fitting the data to a sigmoidal concentration-response curve with variable slope. The maximal achievable inhibition of forskolin-induced cAMP levels (Ymax) for each compound was expressed as relative percentage of inhibition attained using pyroglutamated apelin-13 ((Pyr1)apelin-13) peptide, which was set to 100%.
The examples disclosed below were tested in the APJ in vitro assays described above and were found having human APJ cyclic AMP (hcAMP) activity. The EC50 value of each compound is presented at the end of the example description.
The biological activity of the exemplified compounds of this invention determined by the assay described above is shown at the end of each example.

| EC50 [nM] | Compound |
| --- | --- |
| 0.01 to 10 | COc1cccc(OC)c1-n1c(CCC2CC2)nc(O)c(Cc2ccc(-n3cc(C)ccc3=O)cc2)c1=O [Example 55, 2-(2-cyclopropylethyl)-3-(2,6-dimethoxyphenyl)-6-hydroxy-5-{[4-(5-methyl-2-oxo-1,2-dihydropyridin-1-yl)phenyl]methyl}-3,4-dihydropyrimidin-4-one] |
| 0.01 to 10 | COc1cccc(OC)c1-n1c(CCC2CC2)nc(O)c(Cc2ccc(-n3cc(F)ccc3=O)cc2)c1=O [Example 56, 2-(2-cyclopropylethyl)-3-(2,6-dimethoxyphenyl)-5-{[4-(5-fluoro-2-oxo-1,2-dihydropyridin-1-yl)phenyl]methyl}-6-hydroxy-3,4-dihydropyrimidin-4-one] |
| 0.01 to 10 | COc1cccc(OC)c1-n1c(CCC2CC2)nc(O)c(Cc2ccc(-n3cc(Cl)ccc3=O)cc2)c1=O [Example 57, 5-{[4-(5-chloro-2-oxo-1,2-dihydropyridin-1-yl)phenyl]methyl}-2-(2-cyclopropylethyl)-3-(2,6-dimethoxyphenyl)-6-hydroxy-3,4-dihydropyrimidin-4-one] |
| 0.01 to 10 | COc1cccc(OC)c1-n1c(COC(C)C)nc(O)c(Cc2ccc(-n3cc(C)ccc3=O)cc2)c1=O [Example 58, 3-(2,6-dimethoxyphenyl)-6-hydroxy-5-{[4-(5-methyl-2-oxo-1,2-dihydropyridin-1-yl)phenyl]methyl}-2-[(propan-2-yloxy)methyl]-3,4-dihydropyrimidin-4-one] |
| 0.01 to 10 | COc1cccc(OC)c1-n1c(COC(C)C)nc(O)c(Cc2ccc(-n3cc(F)ccc3=O)cc2)c1=O [Example 59, 3-(2,6-dimethoxyphenyl)-5-{[4-(5-fluoro-2-oxo-1,2-dihydropyridin-1-yl)phenyl]methyl}-6-hydroxy-2-[(propan-2-yloxy)methyl]-3,4-dihydropyrimidin-4-one] |
| 0.01 to 10 | COc1cccc(OC)c1-n1c(COC(C)C)nc(O)c(Cc2ccc(-n3cc(Cl)ccc3=O)cc2)c1=O [Example 60, 5-{[4-(5-chloro-2-oxo-1,2-dihydropyridin-1-yl)phenyl]methyl}-3-(2,6-dimethoxyphenyl)-6-hydroxy-2-[(propan-2-yloxy)methyl]-3,4-dihydropyrimidin-4-one] |
| 0.01 to 10 | CCn1ccc(-c2nc(=O)c(Cc3ccc(-c4ccncc4C)cc3)c(O)n2-c2c(OC)cccc2OC)n1 [Example 62, 1-(2,6-dimethoxyphenyl)-2-(1-ethyl-1H-pyrazol-3-yl)-6-hydroxy-5-{[4-(3-methylpyridin-4-yl)phenyl]methyl}-1,4-dihydropyrimidin-4-one] |
| 0.01 to 10 | CCn1ccc(-c2nc(=O)c(Cc3ccc(-c4ccnc(F)c4C)cc3)c(O)n2-c2c(OC)cccc2OC)n1 [Example 63, 1-(2,6-dimethoxyphenyl)-2-(1-ethyl-1H-pyrazol-3-yl)-5-{[4-(2-fluoro-3-methylpyridin-4-yl)phenyl]methyl}-6-hydroxy-1,4-dihydropyrimidin-4-one] |
| 0.01 to 10 | CCCCc1nc(=O)c(Cc2ccc(-c3ccc(F)nc3C)cc2)c(O)n1-c1c(CC)cccc1CC [Example 64, 2-butyl-1-(2,6-diethylphenyl)-5-{[4-(6-fluoro-2-methylpyridin-3-yl)phenyl]methyl}-6-hydroxy-1,4-dihydropyrimidin-4-one] |
| 0.01 to 10 | CCCCc1nc(=O)c(Cc2ccc(-c3ccc(F)nc3)cc2)c(O)n1-c1c(CC)cccc1CC [Example 65, 2-butyl-1-(2,6-diethylphenyl)-5-{[4-(6-fluoropyridin-3-yl)phenyl]methyl}-6-hydroxy-1,4-dihydropyrimidin-4-one] |
| 0.01 to 10 | CCCCc1nc(=O)c(Cc2ccc(-c3ccnc(F)c3C)cc2)c(O)n1-c1c(CC)cccc1CC [Example 66, 2-butyl-1-(2,6-diethylphenyl)-5-{[4-(2-fluoro-3-methylpyridin-4-yl)phenyl]methyl}-6-hydroxy-1,4-dihydropyrimidin-4-one] |
| 0.01 to 10 | CCCCc1nc(=O)c(Cc2ccc(C3CC3)cc2)c(O)n1-c1c(CC)cccc1CC [Example 67, 2-butyl-5-[(4-cyclopropylphenyl)methyl]-1-(2,6-diethylphenyl)-6-hydroxy-1,4-dihydropyrimidin-4-one] |
| 10 to 100 | CCCCc1nc(=O)c(Cc2ccc(-c3ccccc3)cc2)c(O)n1-c1c(CC)cccc1CC [Example 68, 5-({[1,1′-biphenyl]-4-yl}methyl)-2-butyl-1-(2,6-diethylphenyl)-6-hydroxy-1,4-dihydropyrimidin-4-one] |
| 0.01 to 10 | CCc1cccc(CC)c1-n1c(-c2ccn(C)n2)nc(=O)c(Cc2ccc(-c3ccc(F)nc3C)c(F)c2)c1O [Example 69, 1-(2,6-diethylphenyl)-5-{[3-fluoro-4-(6-fluoro-2-methylpyridin-3-yl)phenyl]methyl}-6-hydroxy-2-(1-methyl-1H-pyrazol-3-yl)-1,4-dihydropyrimidin-4-one] |
| 0.01 to 10 | CCc1cccc(CC)c1-n1c(-c2ccn(C)n2)nc(=O)c(Cc2ccc(-c3ccncc3C)c(F)c2)c1O [Example 70, 1-(2,6-diethylphenyl)-5-{[3-fluoro-4-(3-methylpyridin-4-yl)phenyl]methyl}-6-hydroxy-2-(1-methyl-1H-pyrazol-3-yl)-1,4-dihydropyrimidin-4-one] |
| 0.01 to 10 | CCc1cccc(CC)c1-n1c(-c2ccn(C)n2)nc(=O)c(Cc2ccc(-c3ccnc(F)c3C)c(F)c2)c1O [Example 71, 1-(2,6-diethylphenyl)-5-{[3-fluoro-4-(2-fluoro-3-methylpyridin-4-yl)phenyl]methyl}-6-hydroxy-2-(1-methyl-1H-pyrazol-3-yl)-1,4-dihydropyrimidin-4-one] |
| 0.01 to 10 | CCc1cccc(CC)c1-n1c(-c2csc(C)n2)nc(=O)c(Cc2ccc(-c3ccc(F)nc3C)c(F)c2)c1O [Example 72, 1-(2,6-diethylphenyl)-5-{[3-fluoro-4-(6-fluoro-2-methylpyridin-3-yl)phenyl]methyl}-6-hydroxy-2-(2-methyl-1,3-thiazol-4-yl)-1,4-dihydropyrimidin-4-one] |
| 0.01 to 10 | CCc1cccc(CC)c1-n1c(-c2nc(C)cs2)nc(=O)c(Cc2ccc(-c3ccnc(F)c3C)c(F)c2)c1O [Example 73, 1-(2,6-diethylphenyl)-5-{[3-fluoro-4-(2-fluoro-3-methylpyridin-4-yl)phenyl]methyl}-6-hydroxy-2-(4-methyl-1,3-thiazol-2-yl)-1,4-dihydropyrimidin-4-one] |
| 0.01 to 10 | CCc1cccc(CC)c1-n1c(-c2csc(C)n2)nc(=O)c(Cc2ccc(-c3ccncc3C)c(F)c2)c1O [Example 74, 1-(2,6-diethylphenyl)-5-{[3-fluoro-4-(3-methylpyridin-4-yl)phenyl]methyl}-6-hydroxy-2-(2-methyl-1,3-thiazol-4-yl)-1,4-dihydropyrimidin-4-one] |
| 0.01 to 10 | CCc1cccc(CC)c1-n1c(-c2nc(C)cs2)nc(=O)c(Cc2ccc(-c3ccncc3C)c(F)c2)c1O [Example 75, 1-(2,6-diethylphenyl)-5-{[3-fluoro-4-(3-methylpyridin-4-yl)phenyl]methyl}-6-hydroxy-2-(4-methyl-1,3-thiazol-2-yl)-1,4-dihydropyrimidin-4-one] |

Same assay, conditions: HEK293 cells stably expressing human APJ receptor; inhibition of forskolin-mediated cAMP production; read-out: Human APJ cAMP EC50 potency range

| EC50 [nM] | Compound |
| --- | --- |
| 0.01 to 10 | CCc1cccc(CC)c1-n1c(-c2ccn(C3CC3)n2)nc(=O)c(Cc2ccc(-c3ccnc(F)c3C)c(F)c2)c1O [Example 61, 2-(1-cyclopropyl-1H-pyrazol-3-yl)-1-(2,6-diethylphenyl)-5-(3-fluoro-4-(2-fluoro-3-methylpyridin-4-yl)benzyl)-6-hydroxypyrimidin-4(1H)-one] |
